{"source": "patent US20050148556A1", "about": "“Compositions and methods for increasing HDL and HDL-2b levels” (priority 2003, published 2005)", "origin": "cited, not measured here", "conditions": "in vivo"}
{"smiles": "CN(C)C(=N)N=C(N)N", "note": "[Metformin, metformin]", "values": [{"measurement": "HDL cholesterol levels after metformin therapy", "result": "either do not change or increase slightly"}]}
